Key:
[1] = system: LNCaP; assay: Antiproliferative activity against human LNCAP cells; assay type: functional, cell-based
[2] = Selectivity ratio of IC50 for PI3Kalpha to IC50 for mTOR
[3] = molecular target: Phosphatidylinositol 4,5-bisphosphate 3-kinase catalytic subunit alpha isoform (Homo sapiens, UniProt P42336); assay: Inhibition of PI3Kalpha
[4] = molecular target: Serine/threonine-protein kinase mTOR (Homo sapiens, UniProt P42345); assay: Inhibition of mTOR

Chain of Phosphatidylinositol 4,5-bisphosphate 3-kinase catalytic subunit alpha isoform (P42336 whole entry, canonical isoform): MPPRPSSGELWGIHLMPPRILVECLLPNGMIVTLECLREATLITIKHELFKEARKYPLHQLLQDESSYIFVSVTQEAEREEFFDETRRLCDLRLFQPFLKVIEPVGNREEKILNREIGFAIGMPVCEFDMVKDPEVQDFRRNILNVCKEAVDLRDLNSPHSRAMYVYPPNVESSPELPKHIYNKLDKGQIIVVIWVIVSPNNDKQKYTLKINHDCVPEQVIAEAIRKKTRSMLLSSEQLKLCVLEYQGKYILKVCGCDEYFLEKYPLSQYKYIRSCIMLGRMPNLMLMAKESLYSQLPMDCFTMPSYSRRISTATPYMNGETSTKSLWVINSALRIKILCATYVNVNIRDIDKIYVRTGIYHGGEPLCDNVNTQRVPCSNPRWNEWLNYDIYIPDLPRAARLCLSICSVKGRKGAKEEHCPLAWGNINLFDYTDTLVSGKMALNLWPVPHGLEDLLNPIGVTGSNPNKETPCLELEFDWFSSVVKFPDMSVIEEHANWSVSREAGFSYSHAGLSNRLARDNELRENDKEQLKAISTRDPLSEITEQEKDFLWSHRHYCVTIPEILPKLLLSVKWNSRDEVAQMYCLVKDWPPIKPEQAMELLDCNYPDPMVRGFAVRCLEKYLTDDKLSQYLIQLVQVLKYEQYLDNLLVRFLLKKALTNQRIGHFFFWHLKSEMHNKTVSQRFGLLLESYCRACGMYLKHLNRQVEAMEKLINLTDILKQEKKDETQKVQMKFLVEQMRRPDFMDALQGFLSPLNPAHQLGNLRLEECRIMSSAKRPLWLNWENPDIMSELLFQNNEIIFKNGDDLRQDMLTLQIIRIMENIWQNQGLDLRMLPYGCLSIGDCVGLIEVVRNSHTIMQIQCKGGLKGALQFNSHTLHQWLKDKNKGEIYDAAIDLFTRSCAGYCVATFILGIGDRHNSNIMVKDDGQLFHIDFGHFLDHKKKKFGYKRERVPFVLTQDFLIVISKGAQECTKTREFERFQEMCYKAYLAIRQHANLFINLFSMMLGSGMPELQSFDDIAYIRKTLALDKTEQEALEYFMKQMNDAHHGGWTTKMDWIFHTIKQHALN

| SMILES | IC50 [1] [nM] | Ratio IC50 [2] | IC50 [3] [nM] | IC50 [4] [nM] |
| --- | --- | --- | --- | --- |
| CCNC(=O)Nc1ccc2c(c1)C(=O)/C(=C/c1cn(C)c3nccc(N4CC5CCC(C4)O5)c13)O2 | 2800 | – | – | – |
| CN(Cc1ccncc1)C(=O)C1CCN(c2ccnc3c2c(/C=C2\Oc4ccc(NC(=O)Nc5cccnc5)cc4C2=O)cn3C)CC1 | 23 | 132 | – | – |
| Cn1cc(/C=C2\Oc3ccc(NC(=O)Nc4cccnc4)cc3C2=O)c2c(N3CC4CCC3CO4)ccnc21 (configuration not stated) | 1.8 | – | 249 | – |
| CCN(CC)C(=O)C1CCN(c2ccnc3c2c(/C=C2\Oc4ccc(NC(=O)Nc5cccnc5)cc4C2=O)cn3C)CC1 | 50 | – | – | – |
| CN(C)C1CCN(C(=O)C2CCN(c3ccnc4c3c(/C=C3\Oc5ccc(NC(=O)Nc6cccnc6)cc5C3=O)cn4C)CC2)C1 (configuration not stated) | 2300 | – | > 10000 | 11 |
| CN(Cc1cccnc1)C(=O)C1CCN(c2ccnc3c2c(/C=C2\Oc4ccc(NC(=O)Nc5cccnc5)cc4C2=O)cn3C)CC1 | 3200 | – | – | – |
| Cn1cc(/C=C2\Oc3ccc(NC(=O)Nc4ccccc4)cc3C2=O)c2c(N3CC4CCC(C3)O4)ccnc21 | 280 | 3.4 | – | – |
| Cn1cc(/C=C2\Oc3cccc(O)c3C2=O)c2c(-c3ccccc3)ccnc21 | 200 | 25.4 | – | – |
| CNC(=O)Nc1ccc2c(c1)C(=O)/C(=C/c1cn(C)c3nccc(-c4ccccc4)c13)O2 | 60000 | – | – | – |
| CN(Cc1ccccn1)C(=O)C1CCN(c2ccnc3c2c(/C=C2\Oc4ccc(NC(=O)Nc5cccnc5)cc4C2=O)cn3C)CC1 | 40 | – | – | – |
| Cn1cc(/C=C2\Oc3ccc(NC(=O)Nc4cccnc4)cc3C2=O)c2c(N3CCC(C(=O)N4CC5CCC(C4)O5)CC3)ccnc21 | 90 | – | – | – |
| Cn1cc(/C=C2\Oc3ccc(NC(=O)Nc4cccnc4)cc3C2=O)c2c(N3CCOCC3)ccnc21 | 50 | – | – | – |
| CN1CCN(C(=O)C2CCN(c3ccnc4c3c(/C=C3\Oc5ccc(NC(=O)Nc6cccnc6)cc5C3=O)cn4C)CC2)CC1 | 330 | 65.7 | – | 70 |
| Cn1cc(/C=C2\Oc3ccc(NC(=O)Nc4cccnc4)cc3C2=O)c2c(N3CC4CCC(C3)O4)ccnc21 | 15 | – | – | – |
| CN(Cc1ccccc1)C(=O)C1CCN(c2ccnc3c2c(/C=C2\Oc4ccc(NC(=O)Nc5cccnc5)cc4C2=O)cn3C)CC1 | 20 | – | > 10000 | 102 |
| CN(C)CCNC(=O)Nc1ccc2c(c1)C(=O)/C(=C/c1cn(C)c3nccc(N4CC5CCC(C4)O5)c13)O2 | 60 | – | – | – |
| Cn1cc(/C=C2\Oc3ccc(NC(=O)Nc4cccnc4)cc3C2=O)c2c(N3CCC(C(=O)N4CCOCC4)CC3)ccnc21 | 3200 | 148 | 2660 | – |
| Cn1cc(/C=C2\Oc3ccc(NC(=O)Nc4cccnc4)cc3C2=O)c2c(N3CCC(C(=O)N4CCCC4)CC3)ccnc21 | 12 | 111 | – | – |
| Cn1cc(/C=C2\Oc3ccc(NC(=O)Nc4cccnc4)cc3C2=O)c2c(N3C4CCC3COC4)ccnc21 | 6 | 3 | 128 | – |
| Cn1cc(/C=C2\Oc3ccc(NC(=O)Nc4cccnc4)cc3C2=O)c2c(N3CCC(C(=O)N4C5CCC4COC5)CC3)ccnc21 | 200 | – | – | – |
| Cn1cc(/C=C2\Oc3ccc(NC(=O)Nc4ccc(N5CCOCC5)nc4)cc3C2=O)c2c(N3CC4CCC(C3)O4)ccnc21 | > 60000 | 76.6 | – | – |
| CN(C(=O)C1CCN(c2ccnc3c2c(/C=C2\Oc4ccc(NC(=O)Nc5cccnc5)cc4C2=O)cn3C)CC1)c1cccnc1 | 300 | – | – | – |
| CNC(=O)Nc1ccc2c(c1)C(=O)/C(=C/c1cn(C)c3nccc(N4CC5CCC(C4)O5)c13)O2 | 140 | – | – | – |
| Cn1cc(/C=C2\Oc3ccc(NC(=O)Nc4cccnc4)cc3C2=O)c2c(N3CCC(C(=O)N4CCCCC4)CC3)ccnc21 | 18 | 12.6 | – | – |
| CNC(=O)Nc1cccc2c1C(=O)/C(=C/c1cn(C)c3nccc(-c4ccccc4)c13)O2 | > 60000 | – | – | – |
| Cn1cc(/C=C2\Oc3ccc(NC(=O)Nc4cccnc4)cc3C2=O)c2c(N3CCC(C(=O)NCc4cccnc4)CC3)ccnc21 | 60000 | 450 | 4040 | 9 |
| CN(C)C(=O)C1CCN(c2ccnc3c2c(/C=C2\Oc4ccc(NC(=O)Nc5cccnc5)cc4C2=O)cn3C)CC1 | 80 | – | – | – |

Source: ChEMBL document CHEMBL1156282, “4-Substituted-7-azaindoles bearing a ureidobenzofuranone moiety as potent and selective, ATP-competitive inhibitors of the mammalian target of rapamycin (mTOR)” (Bioorg Med Chem Lett, 2010)
